The text below walks through data of PMC6150325 (Molecules : A Journal of Synthetic Chemistry and Natural …, 2017).

The test system of one test is Ruminococcus gnavus NA. As to conditions: cited from earlier work.
In test [1] the target is Streptococcus pneumoniae NA NanA. As to conditions: cited from earlier work.
Test [2] deals with T1, bacterial Vibrio cholerae neuraminidase (VCNA) (Vibrio cholerae serotype O1, UniProt P0C6E9).
T1 construct: purchased Hoffmann La Roche, Basel, Switzerland
Description: biochemical. As to conditions: mean ± SD, n = 3–6.

The next test addresses T2, bacterial VCNA (Vibrio cholerae serotype O1, UniProt P0C6E9).
T2 construct: purchased Hoffmann La Roche, Basel, Switzerland
Description: biochemical.

Test [3] has as its target viral influenza A/California/04/2009 (H1N1) neuraminidase (H1N1-NA) (Influenza A virus (A/California/04/2009(H1N1)), UniProt C3W5S3). Description: biochemical. The class given is biochemical.

Several values for one entry are separate records, joined by “and”; a condition that tells them apart may be missing. Equal entries are not always repeated. Where two headings read alike, the source gives them in different places.

T1 sequence (P0C6E9 25-781): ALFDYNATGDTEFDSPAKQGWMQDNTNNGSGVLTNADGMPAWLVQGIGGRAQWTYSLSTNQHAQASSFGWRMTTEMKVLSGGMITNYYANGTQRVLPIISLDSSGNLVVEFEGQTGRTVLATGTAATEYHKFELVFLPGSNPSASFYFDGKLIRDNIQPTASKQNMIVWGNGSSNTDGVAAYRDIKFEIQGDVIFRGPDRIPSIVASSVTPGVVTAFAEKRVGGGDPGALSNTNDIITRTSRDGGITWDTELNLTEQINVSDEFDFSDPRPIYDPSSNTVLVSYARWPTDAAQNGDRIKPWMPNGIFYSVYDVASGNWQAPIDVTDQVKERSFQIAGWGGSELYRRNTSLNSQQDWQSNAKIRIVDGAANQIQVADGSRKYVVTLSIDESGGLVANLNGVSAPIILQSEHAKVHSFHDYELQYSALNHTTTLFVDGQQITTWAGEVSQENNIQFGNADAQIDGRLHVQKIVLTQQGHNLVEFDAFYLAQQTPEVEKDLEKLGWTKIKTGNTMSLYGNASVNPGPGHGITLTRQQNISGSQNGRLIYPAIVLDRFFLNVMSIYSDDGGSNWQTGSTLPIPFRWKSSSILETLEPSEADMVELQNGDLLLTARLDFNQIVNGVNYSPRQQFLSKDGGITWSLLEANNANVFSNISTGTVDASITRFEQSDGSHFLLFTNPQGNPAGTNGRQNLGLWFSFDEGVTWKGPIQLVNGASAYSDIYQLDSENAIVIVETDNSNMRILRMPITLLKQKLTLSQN
T2 sequence (P0C6E9 25-781): as above
Description for bacterial VCNA: The median–effect concentration (Dm, a parameter analogous to the IC50 value indicating potency), the slope of the concentration–effect relationship (m, the dynamic order or the shape of dose–effect curve), and the linear regression correlation coefficient (r, a measure of data quality) were determined from the median–effect plots.
The concentration–efficiency curves of the test samples were transformed into the double-logarithmic mean action diagram (shape (m), intercepts and regression coefficients were used to determine the median effect dose Dm). Dm= 10^−(b/m)
Fraction affected (fa) and fraction unaffected (fu) by the concentration D were calculated by the median effect equation [27]: fa/fu= (D/Dm)^m
Dm is the concentration required to produce the median effect.

As a reminder, the IC50 is the concentration at which inhibition is half-maximal. The term Ki denotes a measure of affinity in units of concentration, obtained from inhibition or displacement. Take `CCC(CC)O[C@@H]1C=C(C(=O)O)C[C@H](N)[C@H]1NC(C)=O` [oseltamivir carboxylate]: the IC50 in the test with Ruminococcus gnavus NA was 30 µM. For the same compound, in test [1], the Ki is 1.77 µM. As for `CC(=O)N[C@H]1[C@H]([C@H](O)[C@H](O)CO)OC(C(=O)O)=C[C@@H]1N=C(N)N` [zanamivir, 2,4-dideoxy-2,3-didehydro-4-guanidino-N-acetylneuraminic acid], the IC50 in test [2] is 51.2 µM and 52 µM; in the test with Ruminococcus gnavus NA it was 11900 µM; against bacterial VCNA it was 51.2 µM. Also, on bacterial VCNA (VCNA, median effect plot), the “m (slope of the concentration–effect relationship)” value is recorded as 0.9. Moreover, the Ki in test [1] is 720 µM. As for `O=C(O[C@@H]1Cc2c(O)cc(O)cc2O[C@@H]1c1cc(O)c(O)c(O)c1)c1cc(O)c(O)c(O)c1` [epigallocatechin-3-O-gallate], the concentration for half-maximal inhibition (IC50) was 63.3 µM and 64 µM in test [2]; 1560 µM in test [3] (IC50 (Viral)). In the case of `O=C(O[C@H]1Cc2c(O)cc(O)cc2O[C@@H]1c1ccc(O)c(O)c1)c1cc(O)c(O)c(O)c1` [catechin-3-O-gallate], the IC50 in test [2] was 54.3 µM and 55 µM; in test [3] (IC50 (Viral)), 1950 µM. In test [2], `O=C1O[C@H]2[C@H](OC(=O)c3cc(O)c(O)c(O)c3)[C@@H](OC(=O)c3cc(O)c(O)c4c3[C@@H]3C1=CC(=O)[C@](O)(O4)C3(O)O)[C@@H]1OC(=O)c3cc(O)c(O)c(O)c3-c3c(cc(O)c(O)c3O)C(=O)OC[C@H]2O1` [carpinusin] had an IC50 of 138 µM. For `O=C1O[C@H]2[C@H](OC(=O)c3cc(O)c(O)c(O)c3)[C@@H](OC(=O)c3cc(O)c(O)c4c3[C@@H]3C1=CC(=O)C(O)(O)C3(O)O4)[C@H](OC(=O)c1cc(O)c(O)c(O)c1)O[C@@H]2COC(=O)c1cc(O)c(O)c(O)c1` (stereo partly drawn) [terchebin], the IC50 in test [2] was 30.4 µM and 31 µM; in test [3] (IC50 (Viral)), 102 µM and 101 µM. Further, the “fold higher inhibitory potency compared to paeonianin C” value in test [3] was 3.5 fold.

`O=C1O[C@H]2[C@H](O)[C@@H](OC(=O)c3cc(O)c(O)c4c3[C@@H]3C1=CC(=O)[C@](O)(O4)C3(O)O)[C@@H]1OC(=O)c3cc(O)c(O)c(O)c3-c3c(cc(O)c(O)c3O)C(=O)OC[C@H]2O1` [granatin A]: the IC50 in test [2] was 155 µM and 158 µM.

`O=C1OCC2OC(=O)c3cc(O)c(O)c(O)c3-c3c(O)c(O)c(O)c4c3C(=O)OC(C2OC(=O)c2cc(O)c(O)c(O)c2-c2c1cc(O)c(O)c2O)C1OC(=O)c2c-4c(O)c(O)c(O)c2C1O` (stereo not drawn) [vescalagin] had an IC50 in test [2] of 134 µM.

In the case of `O=C1O[C@H]2[C@@H]3OC(=O)c4cc(O)c(O)c(O)c4-c4c(cc(O)c(O)c4O)C(=O)OC[C@H]2O[C@@H](OC(=O)c2cc(O)c(O)c(O)c2)[C@@H]3OC(=O)c2cc(O)c(O)c3c2[C@@H]2C1=CC(=O)[C@](O)(O3)C2(O)O` [geraniin], the IC50 in test [2] was 134 µM and 135 µM. Regarding `Oc1cc(O)c2c(c1)O[C@H](c1ccc(O)c(O)c1)[C@H](O)C2` [epicatechin], the IC50 in test [2] is 2310 µM; in test [3] (IC50 (Viral)) it was 1050 µM.

`O=C1OC[C@@H](O)[C@H]([C@@H]2OC(=O)c3cc(O)c(O)c(O)c3-c3c(O)c(O)c(O)c4c3C(=O)O[C@H]2[C@@H]4O)OC(=O)c2cc(O)c(O)c(O)c2-c2c1cc(O)c(O)c2O` [casuariin] showed a 50% inhibitory concentration (IC50) in test [2] of 236 µM.

On to `O=C(O[C@@H]1Cc2c(O)cc(O)cc2O[C@@H]1c1ccc(O)c(O)c1)c1cc(O)c(O)c(O)c1` [epicatechin-3-O-gallate], for which the IC50 was 210 µM and 211 µM in test [2]; 1910 µM in test [3] (IC50 (Viral)). Consider `O=C(O[C@H]1Cc2c(O)cc(O)cc2O[C@@H]1c1cc(O)c(O)c(O)c1)c1cc(O)c(O)c(O)c1` [gallocatechin-3-O-gallate], for which the IC50 is 24 µM and 25 µM in test [2]; 395 µM and 396 µM in test [3] (IC50 (Viral)). For `Oc1cc(O)c2c(c1)O[C@H](c1cc(O)c(O)c(O)c1)[C@@H](O)C2` [gallocatechin], the IC50 in test [2] is 1970 µM; in test [3] (IC50 (Viral)) it was 1790 µM.

Consider `Oc1cc(O)c2c(c1)O[C@H](c1cc(O)c(O)c(O)c1)[C@H](O)C2` [epigallocatechin], for which the IC50 in test [2] is 1950 µM and 1960 µM; in test [3] (IC50 (Viral)) it was 1740 µM. For `Oc1cc(O)c2c(c1)O[C@H](c1ccc(O)c(O)c1)[C@@H](O)C2` [catechin], the IC50 in test [2] was 2050 µM; in test [3] (IC50 (Viral)), 1070 µM and 1080 µM. `O=C(OCC1OC(OC(=O)c2cc(O)c(O)c(O)c2)C(OC(=O)c2cc(O)c(O)c(O)c2)C(OC(=O)c2cc(O)c(O)c(O)c2)C1OC(=O)c1cc(O)c(O)c(O)c1C1c2c(O)c(O)c(O)c3c2C(=O)OC1C(C1OC(=O)c2cc(O)c(O)c(O)c2-c2c(cc(O)c(O)c2O)C(=O)OCC1O)OC(=O)c1cc(O)c(O)c(O)c1-3)c1cc(O)c(O)c(O)c1` (stereo not drawn) [paeonianin C]: the IC50 in test [2] was 14.6 µM and 15 µM; in test [3] (read-out: IC50 (Viral)), 344 µM.
